Series [1] deals with C57BI/6J mice. Kind of series: d-amphetamine (AMP)-elicited hyperlocomotion in C57BI/6J mice. It counts as in vivo. The settings on record: 5.6 mg/kg; AMP 3 mg/kg; 30 min session. The text has this: (§1) Regarding glutamate neurotransmission in stereotypy, the NMDA receptor antagonist, MK-801, characteristically elicits stereotypic rotations that appear to mimic monogenetic stereotypy observed in Fmr1 KO mice. Furthermore, mutations and autoantibodies of the NMDA glutamate receptor that decrease its function are causally linked to ASD, intellectual disabilities, and psychiatric symptoms in humans.

A further series deals with C58/J and C57BI/6J mice. Kind of series: Locomotor behavior of the compound on its own (stereotypy assays). It counts as in vivo. The settings on record: 1, 3 and 5.6 mg/kg. The text has this: Data are from stereotypy assays using C58/J (left) and C57BI/6J (right) mice. […] Bar graphs show the mean±SEM.
The subject of series [2] is C57BI/6J mice. Kind of series: MK-801-elicited hyperlocomotion in C57BI/6J mice. The series is classed as in vivo. The settings on record: 5.6 mg/kg; MK-801 0.3 mg/kg; 30 min session.
Excerpt: Bar graphs show the mean±SEM.
as §1

Another series has as its target T1, 5-HT2C (Homo sapiens, UniProt P28335).
T1 sequence (P28335 33-458): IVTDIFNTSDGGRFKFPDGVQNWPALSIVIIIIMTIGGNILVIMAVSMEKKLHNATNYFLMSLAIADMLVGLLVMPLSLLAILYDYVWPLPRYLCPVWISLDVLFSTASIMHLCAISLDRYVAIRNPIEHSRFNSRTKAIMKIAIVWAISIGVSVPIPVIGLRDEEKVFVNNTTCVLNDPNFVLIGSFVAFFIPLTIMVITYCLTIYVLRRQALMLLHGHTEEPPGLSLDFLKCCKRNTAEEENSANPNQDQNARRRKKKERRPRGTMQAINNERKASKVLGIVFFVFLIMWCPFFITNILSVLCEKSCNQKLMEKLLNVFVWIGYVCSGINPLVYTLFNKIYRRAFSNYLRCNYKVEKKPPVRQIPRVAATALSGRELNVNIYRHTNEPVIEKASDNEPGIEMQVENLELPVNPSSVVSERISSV
Kind of series: Functional assay at 5-HT2C, relative to 5-HT. It counts as cell-based. Also on record: expressed in transfected cells; host or cells: HEK293, transient.

A further series relates to C58/J mice. The series is described as follows: Idiopathic stereotypic jumping in C58/J mice. The series is classed as in vivo. The settings on record: 1 and 3 mg/kg.
Series [3] deals with T2, 5-HT2C receptors (5-HT2C-INI) (Homo sapiens, UniProt P28335).
T2 construct: expressed in transfected cells; host or cells: HEK293, transient
T2 sequence (P28335 33-458): T1 sequence (P28335 33-458)
The series is described as follows: Binding affinity, HEK293 cells transiently over-expressing human 5-HT2C. The settings on record: human 5-HT2C-INI.

The test system of a further series is mice. Kind of series: Test for serotonin syndrome. It counts as in vivo. The settings on record: 5.6 mg/kg. The text has this: (§2) Of note, after behavioral testing was complete, blind scorers categorized mice into two groups based on number of rears and initiated social interactions, and the two groups differentiated vehicle from (+)-5-FPT-treated mice with 100% accuracy.

The test system of series [4] is C57BI/6J mice. Kind of series: Social interactions with vehicle-treated littermates and grooming. The series is classed as in vivo. The settings on record: 5.6 mg/kg.
Excerpt: Data are from C57BI/6J mice.
as §2

Series [5] concerns C57BI/6J mice. Kind of series: MK-801-elicited stereotypic rotations in C57BI/6J mice. The series is classed as in vivo.
Excerpt: as §1

For series [6], the target named is T3, 5-HT1A receptors (Homo sapiens, UniProt P08908).
T3 construct: expressed in transfected cells; host or cells: HEK293, transient
T3 sequence (P08908 1-422): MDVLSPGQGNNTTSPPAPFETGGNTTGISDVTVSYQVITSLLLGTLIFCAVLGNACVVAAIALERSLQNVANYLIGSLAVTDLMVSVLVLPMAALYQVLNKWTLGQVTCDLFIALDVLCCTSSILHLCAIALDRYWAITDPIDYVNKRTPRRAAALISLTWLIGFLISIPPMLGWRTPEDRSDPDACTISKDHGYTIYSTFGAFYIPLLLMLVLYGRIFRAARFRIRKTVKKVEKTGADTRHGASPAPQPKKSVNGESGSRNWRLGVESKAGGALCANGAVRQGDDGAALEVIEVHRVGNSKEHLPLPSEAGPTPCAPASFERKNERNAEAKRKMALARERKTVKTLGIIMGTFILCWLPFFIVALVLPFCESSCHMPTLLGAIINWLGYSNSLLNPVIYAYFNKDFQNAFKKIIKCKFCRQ
Kind of series: Functional assay at 5-HT1A, relative to 5-CT. It counts as cell-based.

Series [7] is described as follows: Plasma and brain concentrations after subcutaneous administration. The series is classed as in vivo, mice.
The target in series [8] is T3, 5-HT1A receptors. Kind of series: Binding affinity, HEK293 cells transiently over-expressing human 5-HT1A.
Where [9] appears, read: mean (SEM) sessions, score/6 possible.
The mark [10] stands for this setting: 30 min after 3.0 mg/kg subcutaneous, mean (SEM).
The mark [11] stands for this setting: 60 min after 3.0 mg/kg subcutaneous, mean (SEM).

Entries after “also recorded” stand apart in the source; their conditions may differ. Some results are limits rather than exact numbers.

Experimental findings from patent US11021435B2, “Serotonin receptor-targeting compounds and methods” (priority 2014, dated 2021) are described below.

Take `CN(C)C1CCc2c(cccc2-c2ccccc2F)C1` (single isomer, unassigned; (+)) [(+)-5-FPT, 5-(2′-fluorophenyl)-N,N-dimethyl-1,2,3,4-tetrahydronaphthalen-2-amine]: the “Amphetamine (AMP) hyperlocomotion” value in the series with C57BI/6J mice [1] was “did not reduce hyperlocomotion; also recorded: did not significantly decrease hyperlocomotion”. In addition, the “Locomotor behavior, compound on its own” value with C58/J and C57BI/6J mice is listed as “without altering locomotor behavior; also recorded: did not alter locomotion; also recorded: does not alter locomotor behavior”. Further, the MK-801 hyperlocomotion entry in the series with C57BI/6J mice [2] is listed as “significantly decreased hyperlocomotion; also recorded: blocks”. Moreover, on 5-HT2C, the “Functional activity at 5-HT2C, in words” value is “nearly full-efficacy agonist”. Also, the Emax at 5-HT2C (% of maximal response relative to 5-HT, mean (SEM)) stood at 87%. The midpoint of the response at 5-HT2C (mean (SEM)), the EC50, lay at 230 nM. Also, the Stereotypic jumping entry with C58/J mice is “potently eliminated stereotypic jumping; also recorded: dose-dependently eliminates”. In [3] (mean (SEM)), this molecule gave a Ki of 0.269 µM. For the same molecule, the “Flat Body” value in the series on mice (mean (SEM) number of sessions of six with the behavior (score/6 possible)) was 0(0). Also, in the series with mice (setting [9]), the “Forepaw Tread” value was 0(0), the “Head Weave” value is on record as 0(0), the “Moon Walk” value is 0.3(0.2) and the Piloerection is 0(0). In the series with mice (setting [9]), the “Straub Tail” value is 0(0) and the Tremor is listed as 0(0). Moreover, the “Symptoms of serotonin syndrome, in words” value in the series on mice (highest behaviorally-effective dose tested) was “did not result in symptoms of serotonin syndrome”. Besides, the Grooming entry in the series with C57BI/6J mice [4] is “decreasing grooming”. Also, the Social interactions entry with C57BI/6J mice [4] (six one-min observation sessions) is recorded as “significantly increased the number of initiated social interactions; also recorded: increases social interactions”. In the series on C57BI/6J mice [5], the “Stereotypic rotational behavior, compound on its own” value is “neither (+)-5-FPT nor AMP caused stereotypic rotational behavior”. Besides, the MK-801-elicited stereotypic rotations result in the series on C57BI/6J mice [5] (5.6 mg/kg, MK-801 0.3 mg/kg) is listed as “significantly reduced stereotypical rotations; also recorded: significantly reduces stereotypic rotations”. For the same molecule, the “Functional activity at 5-HT1A, in words” value at 5-HT1A receptors [6] is given as “partial agonist”. In addition, the Emax on 5-HT1A receptors [6] (read-out: EMAX 5-HT1A) is 48%. The “Blood-brain barrier crossing, in words” value in [7] (30, 60 and 90 min after systemic administration) is reported as “readily crosses the blood-brain barrier”. Moreover, in series [7] (setting [10]), the Brain concentration is listed as 1.78(0.24) μg/g and the Plasma concentration was 0.114(0.03) μg/mL. Besides, in [7] (setting [11]), the Brain concentration was 2.16(0.17) μg/g and the Plasma concentration is 0.118(0.01) μg/mL. Also, the Brain concentration in series [7] (90 min after 3.0 mg/kg subcutaneous, mean (SEM)) is 1.46(0.09) μg/g. In series [7] (mouse, plasma, 90 min after 3.0 mg/kg subcutaneous, mean (SEM)), this molecule registered a concentration at 90 min of 70 ng/mL. Also, the “Clearance in the periphery, in words” value in series [7] (plasma relative to brain tissue from 30 min post-administration) is “rapidly cleared in the periphery”.

For `CN(C)C1CCc2c(cccc2-c2ccccc2F)C1` (single isomer, unassigned; (-)) [(−)-5-FPT, 5-(2′-fluorophenyl)-N,N-dimethyl-1,2,3,4-tetrahydronaphthalen-2-amine], at 5-HT2C, the “Functional activity at 5-HT2C, in words” value is given as “low-potency”. The “Affinity at 5-HT1A receptors, in words” value at 5-HT1A receptors [8] was “no appreciable affinity”. The Ki in series [3] (bound given in μM) was > 1 µM.
